# Several values for one entry are separate records, joined by “and”; a condition that tells them apart may be missing. Equal entries are not always repeated. Where two headings read alike, the source gives them in different places. Marks after values point to notes of the source that are not given here.
# Tests used:
# MOG-induced EAE = experiment: MOG-induced EAE, lower doses of laquinimod with GA-blocking (Example 2.2); assay type: in vivo, C57B1/6 mice; settings: alone or + GA-blocking 12.5 mg/kg day 0
# Procedure: MOG is a member of the immunoglobulin superfamily expressed exclusively in CNS myelin. It is one of the most encephalitogenic proteins and is widely used to induce EAE in different rodent strains. In C57BL/6 mice, immunization with the MOG peptide pMOG35-55 in CFA induces chronic progressive EAE.
# 24 mg MOG was diluted in 8 ml PBS (3 mg/ml, stock solution). Groups 1, 3 and 5: 3.5 ml of stock solution was diluted 1:1 with PBS. […] 4.5 ml of MOG stock solution was added to this solution.
# The high dose LAQ (5 mg/10 ml/kg) solution (40 mg in 80 ml DDW) was prepared once weekly and stored at room temperature. For the dose of 2.5 mg/kg LAQ, 25 ml of this solution were added to 25 ml DDW. For the dose 1 mg/kg 5 ml of stock solution (high dose) were added to 20 ml DDW. The compound was administered by gavage once daily during the whole experiment (30 days) at a volume of 0.2 ml/mouse.
# The mice were observed daily from the 9th day post-EAE induction (first injection of MOG) and the EAE clinical signs were scored according to the grades described in the 2 above.
# [1] = test system: relapsing remitting (RR) EAE; experiment: Relapsing remitting EAE in Biozzi mice, combination study (Example 2.6); assay type: in vivo; set-up: MMS value / IMS value: scale not given here; settings: for inhibition at 5 mg/kg / inhibition at 12.5 mg/kg / inhibition at 25 mg/kg: Mus musculus, 1416 h
# Procedure: EAE is an animal model for multiple sclerosis. In the Biozzi AB/H EAE mice, a RR EAE can be induced. […] Re-injection of an encephalitogen can induce a chronic relapsing disease that enables measuring long-term effects on subsequent relapses rather than immediate effects.
# The EAE induction was performed according to procedure “RR-EAE.Biozzi” The Biozzi mice were weighed and injected subcutaneously and re-injected one week later with encephalitogenic agent (MSCH emulsion). 0.3 mL of the encephalitogenic agent containing 1.0 mg of MSCH and 200.0 μg of MT was injected subcutaneously, at two sites in the right flank of each mouse (0.15 mL at each site). The second injection was done in a similar manner in the left flank, one week later.
# On the day of first injection of encephalotigen, the Biozzi mice were randomly allocated to eight treatment groups as follows: Tables 16-17.
# The 5.0 mg/mL laquinimod stock solution was diluted 1:5 to yield 1 mg/mL.
# The mice in all the groups were administered daily by oral gavage a volume dose level of […] of the respective test formulations from the day the mice are allocated to the treatment groups (first injection of encephalitogen) for 59 consecutive days until the termination of the study.
# The mice were examined and scored according to the following table, until the termination of the study (60 days after initiation of treatment).
# The activity of the test articles for the first and second phase of RR EAE was calculated by comparing the incidence of disease, mortality, onset and duration of disease, group mean score and mean maximal score to the control group. Calculations were carried separately and together for the first and the second relapse.
# MSCH-induced EAE = MSCH-induced EAE in CSJL mice (Example 2.7); assay type: in vivo, CSJL/F1 mice
# [2] = in vivo; cited from earlier work
# Multiple Sclerosis = settings: two phase III trials; cited from earlier work
# [3] = laquinimod 2.5 mg/kg/day gavage
# [4] = first and second attacks together, laquinimod 5.0 mg/kg oral daily 59 d, alone or + GA 12.5 mg/kg oral
# [5] = first and second attacks together, laquinimod 12.5 mg/kg oral daily 59 d
# [6] = first and second attacks together, laquinimod 25.0 mg/kg oral daily 59 d, alone or + GA 12.5 mg/kg oral
# [7] = first attack, LAQ 5.0 mg/kg oral daily, alone or + GA 12.5 mg/kg oral
# [8] = first attack, LAQ 12.5 mg/kg oral daily
# [9] = first attack, LAQ 25.0 mg/kg oral daily, alone or + GA 12.5 mg/kg oral
# [10] = second attack, LAQ 5.0 mg/kg oral daily, alone or + GA 12.5 mg/kg oral
# [11] = second attack, LAQ 12.5 mg/kg oral daily
# [12] = second attack, LAQ 25.0 mg/kg oral daily, alone or + GA 12.5 mg/kg oral
# [13] = LAQ 0.01 mg/kg/day oral, alone or + GA Blocking 0.5 mg/kg
# [14] = LAQ 0.1 mg/kg/day oral, alone or + GA Blocking 0.5 mg/kg
smiles,measurement,setting,value
CCN(C(=O)c1c(O)c2c(Cl)cccc2n(C)c1=O)c1ccccc1 [laquinimod],inhibition at 2.5 mg/kg,"MOG-induced EAE; Mus musculus, po, 0 h, laquinimod 2.5 mg/kg/day gavage, read-out: % Inhibition compared to control (GMS)",53.7%
same,inhibition at 5 mg/kg,"MOG-induced EAE; Mus musculus, po, 0 h, laquinimod 5 mg/kg/day gavage, read-out: % Inhibition compared to control (GMS)",≤ 68%
same,Group Mean Score,MOG-induced EAE; [3],1.50**
same,Incidence,MOG-induced EAE; [3],13/15
same,Mean Disease Duration,MOG-induced EAE; [3],10.2*** days
same,Mean Maximal Score,MOG-induced EAE; [3],3.17**
same,Mean Onset,MOG-induced EAE; [3],18.9*** days
same,Mortality,MOG-induced EAE; [3],1/15
same,% inhibition compared to Control (GMS),MOG-induced EAE; laquinimod 5 mg/kg/day gavage,68.2%
same,Group Mean Score,MOG-induced EAE; laquinimod 5 mg/kg/day gavage,1.03***
same,Incidence,MOG-induced EAE; laquinimod 5 mg/kg/day gavage,12/14
same,Mean Disease Duration,MOG-induced EAE; laquinimod 5 mg/kg/day gavage,8.6*** days
same,Mean Maximal Score,MOG-induced EAE; laquinimod 5 mg/kg/day gavage,2.89**
same,Mean Onset,MOG-induced EAE; laquinimod 5 mg/kg/day gavage,18.1*** days
same,Mortality,MOG-induced EAE; laquinimod 5 mg/kg/day gavage,0/14
same,inhibition at 5 mg/kg,"[1]; first and second attacks together, laquinimod 5.0 mg/kg oral daily 59 d, alone or + GA 12.5 mg/kg oral, read-out: GMS % inhibition",21.7%
same,inhibition at 5 mg/kg,"[1]; first and second attacks together, laquinimod 5.0 mg/kg oral daily 59 d, alone or + GA 12.5 mg/kg oral, read-out: Incidence % inhibition",23.1%
same,inhibition at 5 mg/kg,"[1]; first and second attacks together, laquinimod 5.0 mg/kg oral daily 59 d, alone or + GA 12.5 mg/kg oral, read-out: MMS % inhibition",16.2%
same,inhibition at 12.5 mg/kg,"[1]; first and second attacks together, laquinimod 12.5 mg/kg oral daily 59 d, read-out: GMS % inhibition",43.5%
same,inhibition at 12.5 mg/kg,"[1]; first and second attacks together, laquinimod 12.5 mg/kg oral daily 59 d, read-out: Incidence % inhibition",23.1%
same,inhibition at 12.5 mg/kg,"[1]; first and second attacks together, laquinimod 12.5 mg/kg oral daily 59 d, read-out: MMS % inhibition",22.2%
same,inhibition at 25 mg/kg,"[1]; first and second attacks together, laquinimod 25.0 mg/kg oral daily 59 d, alone or + GA 12.5 mg/kg oral, read-out: GMS % inhibition",30.4%
same,inhibition at 25 mg/kg,"[1]; first and second attacks together, laquinimod 25.0 mg/kg oral daily 59 d, alone or + GA 12.5 mg/kg oral, read-out: Incidence % inhibition",30.8%
same,inhibition at 25 mg/kg,"[1]; first and second attacks together, laquinimod 25.0 mg/kg oral daily 59 d, alone or + GA 12.5 mg/kg oral, read-out: MMS % inhibition",27.8%
same,GMS value,[1]; [4],1.8
same,Incidence,[1]; [4],10/14
same,MMS value,[1]; [4],3.1
same,Mean Duration,[1]; [4],26.5 ± 17.0 days
same,Mortality,[1]; [4],0/14
same,GMS value,[1]; [5],1.3
same,Incidence,[1]; [5],10/14
same,MMS value,[1]; [5],2.8
same,Mean Duration,[1]; [5],17.5 ± 14.0 days
same,Mortality,[1]; [5],0/14
same,GMS value,[1]; [6],1.6
same,Incidence,[1]; [6],9/14
same,MMS value,[1]; [6],2.6
same,Mean Duration,[1]; [6],23.0 ± 16.4 days
same,Mortality,[1]; [6],0/14
same,IMS value,[1]; [7],42.9 ± 29.8
same,Incidence,[1]; [7],10/14
same,MMS % Inhibition 2,[1]; [7],19.4%
same,MMS value,[1]; [7],2.9 ± 1.9
same,Mean Duration,[1]; [7],15.4 ± 10.9 days
same,Mortality,[1]; [7],0/14
same,IMS % Inhibition 3,"[1]; first attack, LAQ 5.0 mg/kg oral daily, alone or + GA 12.5 mg/kg oral, listed as LAQ",15.6%
same,IMS % Inhibition 3,[1]; [8],53.3%
same,IMS value,[1]; [8],32.4 ± 24.9
same,Incidence,[1]; [8],10/14
same,MMS % Inhibition 2,[1]; [8],25.0%
same,MMS value,[1]; [8],2.7 ± 1.9
same,Mean Duration,[1]; [8],9.6 ± 8.6 days
same,Mortality,[1]; [8],0/14
same,IMS % Inhibition 3,[1]; [9],42.8%
same,IMS value,[1]; [9],39.7 ± 32.3
same,Incidence,[1]; [9],9/14
same,MMS value,[1]; [9],2.6 ± 2.0
same,Mean Duration,[1]; [9],13.9 ± 10.0 days
same,Mortality,[1]; [9],0/14
same,% Inhibition 1 (incidence),[1]; [10],1.8%
same,IMS % Inhibition 3,[1]; [10],18.4%
same,IMS value,[1]; [10],38.6 ± 28.5
same,Incidence,[1]; [10],10/14
same,MMS % Inhibition 2,[1]; [10],3.4%
same,MMS value,[1]; [10],2.8 ± 1.8
same,Mean Duration,[1]; [10],11.4 ± 11.5 days
same,Mortality,[1]; [10],0/14
same,% Inhibition 1 (incidence),[1]; [11],11.6%
same,IMS % Inhibition 3,[1]; [11],41.4%
same,IMS value,[1]; [11],27.7 ± 23.1
same,Incidence,[1]; [11],9/14
same,MMS % Inhibition 2,[1]; [11],13.8%
same,MMS value,[1]; [11],2.5 ± 2.0
same,Mean Duration,[1]; [11],7.9 ± 6.5 days
same,Mortality,[1]; [11],0/14
same,% Inhibition 1 (incidence),[1]; [12],21.5%
same,IMS % Inhibition 3,[1]; [12],29.2%
same,IMS value,[1]; [12],33.5 ± 32.2
same,Incidence,[1]; [12],8/14
same,MMS % Inhibition 2,[1]; [12],20.7%
same,MMS value,[1]; [12],2.3 ± 2.1
same,Mean Duration,[1]; [12],9.1 ± 8.6 days
same,Mortality,[1]; [12],0/14
same,% Inhibition 1 (incidence),MSCH-induced EAE; [13],0.0%
same,GMS % Inhibition 3,MSCH-induced EAE; [13],16.7%
same,GMS value,MSCH-induced EAE; [13],3.5 ± 0.9
same,Incidence,MSCH-induced EAE; [13],10/10
same,MMS % Inhibition 2,MSCH-induced EAE; [13],4.0%
same,MMS value,MSCH-induced EAE; [13],4.8 ± 0.4
same,Mean Duration,MSCH-induced EAE; [13],11.5 ± 0.8 days
same,Mean Onset,MSCH-induced EAE; [13],12.5 ± 0.8 days
same,% Inhibition 1 (incidence),MSCH-induced EAE; [14],10.0%
same,GMS % Inhibition 3,MSCH-induced EAE; [14],31.0%
same,GMS value,MSCH-induced EAE; [14],2.9 ± 1.5
same,Incidence,MSCH-induced EAE; [14],9/10
same,MMS % Inhibition 2,MSCH-induced EAE; [14],18.0%
same,MMS value,MSCH-induced EAE; [14],4.2 ± 1.7
same,Mean Duration,MSCH-induced EAE; [14],9.8 ± 4.0 days
same,Mean Onset,MSCH-induced EAE; [14],14.2 ± 4.0 days
same,% Inhibition 1 (incidence),MSCH-induced EAE; LAQ 0.3 mg/kg/day oral,0.0%
same,GMS % Inhibition 3,MSCH-induced EAE; LAQ 0.3 mg/kg/day oral,28.6%
same,GMS value,MSCH-induced EAE; LAQ 0.3 mg/kg/day oral,3.0 ± 1.2
same,Incidence,MSCH-induced EAE; LAQ 0.3 mg/kg/day oral,10/10
same,MMS % Inhibition 2,MSCH-induced EAE; LAQ 0.3 mg/kg/day oral,16.0%
same,MMS value,MSCH-induced EAE; LAQ 0.3 mg/kg/day oral,4.2 ± 1.0
same,Mean Duration,MSCH-induced EAE; LAQ 0.3 mg/kg/day oral,10.8 ± 2.0 days
same,Mean Onset,MSCH-induced EAE; LAQ 0.3 mg/kg/day oral,13.2 ± 2.0 days
same,Mortality,MSCH-induced EAE; LAQ 0.3 mg/kg/day oral,6/10
same,% Inhibition 1 (incidence),MSCH-induced EAE; LAQ 1.0 mg/kg/day oral,0.0%
same,GMS % Inhibition 3,MSCH-induced EAE; LAQ 1.0 mg/kg/day oral,38.1%
same,GMS value,MSCH-induced EAE; LAQ 1.0 mg/kg/day oral,2.6 ± 1.1
same,Incidence,MSCH-induced EAE; LAQ 1.0 mg/kg/day oral,10/10
same,MMS % Inhibition 2,MSCH-induced EAE; LAQ 1.0 mg/kg/day oral,28.0%
same,MMS value,MSCH-induced EAE; LAQ 1.0 mg/kg/day oral,3.6 ± 0.0
same,Mean Duration,MSCH-induced EAE; LAQ 1.0 mg/kg/day oral,10.7 ± 1.9 days
same,Mean Onset,MSCH-induced EAE; LAQ 1.0 mg/kg/day oral,13.0 ± 2.0 days
same,Mortality,MSCH-induced EAE; LAQ 1.0 mg/kg/day oral,3/10
same,Mortality,"MSCH-induced EAE; mouse, in vivo",7/10 and 8/10
same,oral bioavailability,[2],high oral bioavailability
same,safety and tolerability profile,Multiple Sclerosis,favorable safety and tolerability profile

# Reference: US20160038532A1, “Treatment of Multiple Sclerosis With Combination of Laquinimod and Glatiramer Acetate” (TEVA PHARMACEUTICAL INDUSTRIES, LTD., priority 2011, published 2016)
